From patent US20250320252A1 (The Scripps Research Institute, priority 2021, published 2025)
Where “and” joins values, the source holds several entries; their conditions need not be identical. Equal values may be shown once. Read-outs that look alike come from different tables or passages of the source.

Columns and labels:
[1] = dog, in vivo
in vitro = in vitro ADME; conditions: dog, human, plasma
Description: (§1) To investigate the stability of the conjugates in mouse, cyno monkey, dog, and human plasma, conjugate mCMD307 was incubated in plasma for 24 h (Table 13). At certain time intervals a sample of plasma was taken and plasma proteins precipitated. Samples were analyzed using LC-MS.

[2] = format: in vitro ADME, cynomolgus monkey
Description: as §1

[3] = Plasma stability, 24 h, LC-MS, mouse plasma; format: in vitro ADME
Description: as §1

[4] = Pharmacokinetics in CD-1 mouse, plasma concentration by LC-MS; format: in vivo
Description: The peptide plasma concentration at various time points was determined using LC-MS.

[5] = cynomolgus monkey, in vivo
wild-type mice = test: Oral glucose tolerance test 2 h and 96 h post injection in wild-type mice; format: in vivo, mouse; conditions: 10 nmol/kg s.c., vs vehicle
Description: Data are means±SE, n=6 per group.
Oral glucose tolerance test (OGTT) Female Charles River CD-1 mice were fasted overnight and then administrated 150 μL of each peptide in PBS (pH=8.2) by i.v. or s.c. route.

normal mice = test: Oral glucose tolerance test 12 h after single SC dose in mice; format: in vivo, mouse; conditions: 10 nmol/kg S.C., 12 h before glucose
Description: Mice were fasted overnight prior to the oral glucose tolerance test (OGTT), and then dosed with peptide. After 12 h, 1 g of glucose solution per kg body weight was administered orally, and mouse tail blood glucose levels were measured before (0 min) and after glucose challenge for 90 minutes (with measurements at 15, 30, 60 and 90 minutes) (FIG. 16). The data were compared using the unpaired Student's t test. Where appropriate, data were compared using repeated measures or one-way analysis of variance, followed by the Student-Newman-Keuls post hoc test. Calculations for […] (mg/dL*min) were also analyzed and graphed in FIG. 16. […]. […].

[6] = 1 mg/kg I.V., individual animals, 1 mg/kg
[7] = 1 mg/kg S.C., individual animals, 1 mg/kg

Question: For `CC[C@H](C)[C@H](NC(=O)[C@H](CC(C)C)NC(=O)[C@H](Cc1c[nH]c2ccccc12)NC(=O)[C@@H]1CSCC(=O)NCCN(C(=O)CCC(=O)NCCOCCOCCC(=O)NCCOCCOCCC(=O)NCCCC[C@H](NC(=O)CCCCCCCCCCCCCCCCCCC(=O)O)C(=O)O)CCNC(=O)CSC[C@H](NC(=O)[C@H](CCCCN)NC(=O)[C@H](CC(=O)O)NC(=O)[C@H](CC(C)C)NC(=O)[C@H](Cc2ccc(O)cc2)NC(=O)[C@@H](NC(=O)[C@H](CO)NC(=O)[C@H](Cc2ccc(O)cc2)NC(=O)[C@H](CC(=O)O)NC(=O)[C@H](CO)NC(=O)[C@@H](NC(=O)[C@H](Cc2ccccc2)NC(=O)[C@@H](NC(=O)CNC(=O)[C@H](CCC(=O)O)NC(=O)C(C)(C)NC(=O)[C@@H](N)Cc2ccc(O)cc2)[C@@H](C)O)[C@@H](C)O)[C@@H](C)CC)C(=O)N[C@@H](C)C(=O)N[C@@H](C)C(=O)NC(C)(C)C(=O)N[C@@H](CCC(=O)O)C(=O)N[C@@H](Cc2ccccc2)C(=O)N[C@@H](C(C)C)C(=O)N1)C(=O)N[C@@H](C)C(=O)NCC(=O)NCC(=O)N1CCC[C@H]1C(=O)N[C@@H](CO)C(=O)N[C@@H](CO)C(=O)NCC(=O)N[C@@H](C)C(=O)N1CCC[C@H]1C(=O)N1CCC[C@H]1C(=O)N1CCC[C@H]1C(=O)N[C@@H](CO)C(N)=O` [mCMV268, YAibEGT-FTSDY-SIYLD-KXAAAib-EFVXW-LIAGG-PSSGA-PPPS-NH2 (where each X is C)], which Bioavailability ([1]; po) is on record?
Answer: The Bioavailability was 0.27%, 0.27%,.

Question: Which remaining at 24 h (in vitro) does the source give for `CC[C@H](C)[C@H](NC(=O)[C@H](CO)NC(=O)[C@H](Cc1ccc(O)cc1)NC(=O)[C@H](CC(=O)O)NC(=O)[C@H](CO)NC(=O)[C@@H](NC(=O)[C@H](Cc1ccccc1)NC(=O)[C@@H](NC(=O)CNC(=O)[C@H](CCC(=O)O)NC(=O)C(C)(C)NC(=O)[C@@H](N)Cc1ccc(O)cc1)[C@@H](C)O)[C@@H](C)O)C(=O)N[C@@H](Cc1ccc(O)cc1)C(=O)N[C@H]1CCCCNC(=O)CN(C(=O)CCNC(=O)CCOCCOCCOCCNC(=O)CCCCCCCCCCCCCCCCC(=O)O)CC(=O)NCCCC[C@@H](C(=O)N[C@@H](Cc2ccccc2)C(=O)N[C@H](C(=O)N[C@@H](CC(N)=O)C(=O)N[C@@H](Cc2c[nH]c3ccccc23)C(=O)N[C@@H](CC(C)C)C(=O)N[C@@H](CC(C)C)C(=O)N[C@@H](C)C(=O)NCC(=O)NCC(=O)N2CCC[C@H]2C(=O)N[C@@H](CO)C(=O)N[C@@H](CO)C(=O)NCC(=O)N[C@@H](C)C(=O)N2CCC[C@H]2C(=O)N2CCC[C@H]2C(=O)N2CCC[C@H]2C(=O)N[C@@H](CO)C(N)=O)C(C)C)NC(=O)C(C)(C)NC(=O)[C@H](C)NC(=O)[C@H](C)NC(=O)[C@H](CCC(N)=O)NC(=O)[C@H](CCCCN)NC(=O)[C@H](CC(=O)O)NC1=O` [mCMD307, YAibEGT-FTSDY-SIYXD-KQAAAib-XFVNW-LLAGG-PSSGA-PPPS-NH2 (where each X is K)] here?
Answer: The remaining at 24 h was 92%.

Question: And the “Area under the peak (%)” value [2]?
Answer: Its value is 87%.

Question: And the “Area under the peak (%)” value [3]?
Answer: The value was 53%.

Question: What does the source list for `CC[C@H](C)[C@H](NC(=O)[C@H](CC(C)C)NC(=O)[C@H](Cc1c[nH]c2ccccc12)NC(=O)[C@@H]1CSCC(=O)NCCN(C(=O)CCC(=O)NCCOCCOCCC(=O)NCCOCCOCCC(=O)NCCCC[C@H](NC(=O)CCCCCCCCCCCCCCCCC(=O)O)C(=O)O)CCNC(=O)CSC[C@H](NC(=O)[C@H](CCCCN)NC(=O)[C@H](CC(=O)O)NC(=O)[C@H](CC(C)C)NC(=O)[C@H](Cc2ccc(O)cc2)NC(=O)[C@@H](NC(=O)[C@H](CO)NC(=O)[C@H](Cc2ccc(O)cc2)NC(=O)[C@H](CC(=O)O)NC(=O)[C@H](CO)NC(=O)[C@@H](NC(=O)[C@H](Cc2ccccc2)NC(=O)[C@@H](NC(=O)CNC(=O)[C@H](CCC(=O)O)NC(=O)C(C)(C)NC(=O)[C@@H](N)Cc2ccc(O)cc2)[C@@H](C)O)[C@@H](C)O)[C@@H](C)CC)C(=O)N[C@@H](C)C(=O)N[C@@H](C)C(=O)NC(C)(C)C(=O)N[C@@H](CCC(=O)O)C(=O)N[C@@H](Cc2ccccc2)C(=O)N[C@@H](C(C)C)C(=O)N1)C(=O)N[C@@H](C)C(=O)NCC(=O)NCC(=O)N1CCC[C@H]1C(=O)N[C@@H](CO)C(=O)N[C@@H](CO)C(=O)NCC(=O)N[C@@H](C)C(=O)N1CCC[C@H]1C(=O)N1CCC[C@H]1C(=O)N1CCC[C@H]1C(=O)N[C@@H](CO)C(N)=O` [mCMZ371, YAibEGT-FTSDY-SIYLD-KXAAAib-EFVXW-LIAGG-PSSGA-PPPS-NH2 (where each X is C)]?
Answer: t1/2 in dogs [1]: long t1/2; Tlast ([1]; iv): 240 h; Tlast ([1]; sc): 240 h; AUC compared with mCMZ370 ([4]; 1 mg/kg I.V. or S.C.): significantly larger area under the curve; half-life compared with mCMZ370 ([4]; 1 mg/kg I.V. or S.C.): longer half-life; Tlast ([4]; 1 mg/kg I.V., individual animals): 72 h; AUC—%Extrap—pred [4, 6]: 0.75%; Cl—pred [4, 6]: 2.76 mL/h/kg and 2.46 mL/h/kg; Tlast ([4]; 1 mg/kg S.C., individual animals): 72 h; Cl—Fpred [4, 7]: 7.2 mL/h/kg and 4.8 mL/h/kg and 14.4 mL/h/kg; V—F—pred [4, 7]: 0.06 L/kg and 0.12 L/kg and 0.08 L/kg; Vd ([4]; in vivo, iv, 1 mg/kg I.V., individual animals, read-out: Vss—pred): 0.054 L/kg; clearance ([4]; mouse, in vivo, iv, 1 mg/kg, 1 mg/kg I.V., individual animals, read-out: Cl—pred): 2.88 mL/h/kg; t1/2 in cynomolgus monkeys [5]: long t1/2; Tlast ([5]; iv): 240 h; Tlast ([5]; sc): 240 h

Question: What does the source list for Semaglutide?
Answer: glucose tolerance (OGTT) 96 h after administration (wild-type mice): did not exhibit any improvement over the vehicle; effects on glucose tolerance at 10 nmol/kg (normal mice): indistinguishable effects on glucose tolerance
